Laboratory results reported in patent US8999320B2, “Nanoscale bound bilayers, methods of use and production” (The Rockefeller University, priority 2008, dated 2015).

Assays:
2D7 capture antibody = assay: Sandwich ELISA with conformation sensitive 2D7 capture and 1D4 detection antibodies; type: binding; conditions: CCR5 from HEK-293 cells; 30 minutes at room temperature; sample 1 = DDM, CHAPS, DOPC/POPC
Protocol: The primary (capture) antibody was diluted to 1 μg/mL in 1×PBS pH 7.2 and 100 μL was added to each well of the microplate (Costar clear-bottom, black 96-well). The plate was stored overnight at 4° C. The plate wells were washed twice with PBS containing 0.05% Tween-20 and once with PBS and 200 μL of 10 mg/mL (1%) fatty-acid free BSA in PBS. The plate was either incubated at room temperature for 2 hours or overnight at 4° C. G-protein coupled receptor (GPCR)—NABBs were added to the respective wells in a final volume of 100 μL. GPCR-NABB was diluted in PBS containing 1 mg/mL (0.1%) BSA. The microplate was incubated at 4° C. overnight to ensure complete binding of epitope on the GPCR-NABB to the capture antibody. The analyte was then washed 3 times with 0.1% BSA-PBS using 200 μL per wash. […] The fluorescence in the wells was measured using a Cytofluor-II spectrofluorimeter with excitation at 530 nm and emission at 590 nm.
Conformational stability of the extracellular side of CCR5 after exposure to different detergents was determined by a sandwich ELISA using 2D7 and 1D4 antibodies. […] The amount of CCR5 bound to the 2D7 capture antibody was measured by detecting the binding of the second antibody-HRP-linked 1D4, and adding a fluorogenic HRP substrate in the microplate wells. […]

CCR5 = molecular target: T1, CCR5 (Homo sapiens, UniProt P51681); assay: High-throughput G-protein activation assay (BODIPY-FL-GTPγS binding) with CCR5-NABBs; type: biochemical; conditions: 50 nM RANTES, CCR5 in NABBs
T1 construct: made in house; host or cells: HEK-293 cells stably expressing CCR5, immunopurified on 1D4-sepharose
Protocol: A black, C-bottom 96-well plate was used for the high-throughput G-protein activation assay. 25 μL of purified G protein or its subunits were added to the microplate wells from a […] protein stock. The added proteins were either Gi1α subunit, Gi1α with transducin βγ subunits, or holotransducin (Gt), with 25 μl of buffer G1 without GDP. […] 100 μL of CCR5-NABB solution with and without RANTES were added to the respective wells and the microplate incubated at room temperature for 15 minutes. 60 μL of BODIPY-FL-GTPγS was added from a 1 μM stock to all wells using a multi-channel pipettor. The plate was shaken for 30 seconds, covered and incubated at room temperature for 5 minutes. The fluorescence in the wells was recorded using a Cytofluor II microplate reader with excitation wavelength at 485 nm and 20 nm bandpass, emission wavelength at 530 nm and 25 nm bandpass. The gain was set to 95 and 15 reads were integrated for each well. The fluorescence values from the wells containing BODIPY-FL-GTPγS and no G protein was subtracted from the rest of the data as background. The fluorescence values from wells containing the CCR5-NABBs with no RANTES was subtracted from RANTES-containing wells to determine the RANTES-specific response.
CCR5 activation of G protein was measured by binding of a fluorescently labeled nucleotide analog BODIPY-FL-GTPγS. […]

T1 sequence (P51681 whole entry): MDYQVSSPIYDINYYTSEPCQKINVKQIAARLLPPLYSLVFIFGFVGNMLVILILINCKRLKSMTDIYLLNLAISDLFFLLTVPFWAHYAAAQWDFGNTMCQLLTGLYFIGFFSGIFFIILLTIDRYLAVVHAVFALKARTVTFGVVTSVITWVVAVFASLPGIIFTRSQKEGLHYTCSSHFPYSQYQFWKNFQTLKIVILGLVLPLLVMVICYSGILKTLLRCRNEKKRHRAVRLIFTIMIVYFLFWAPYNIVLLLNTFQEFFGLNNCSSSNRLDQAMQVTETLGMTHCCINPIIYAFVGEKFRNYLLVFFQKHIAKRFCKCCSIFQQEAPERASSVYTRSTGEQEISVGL

CCCCCCCCCCCCO[C@@H]1O[C@H](CO)[C@@H](O[C@H]2O[C@H](CO)[C@@H](O)[C@H](O)[C@H]2O)[C@H](O)[C@H]1O [DDM, n-dodecyl-beta-D-maltopyranoside]
2D7/1D4 sandwich ELISA signal relative to sample 1 (2D7 capture antibody): 65%

RANTES: ligand used to stimulate CCR5 in NABBs
enhancement of B-GTPγS binding to the G protein, compared with unstimulated CCR5-NABBs (CCR5): up to 30%
